Data: patent US20160160189A1, “Truncated Constructs of RIPK3 and Related Uses” (ST. JUDE CHILDREN'S RESEARCH HOSPITAL, priority 2013, published 2016)
Peptide text beside a SMILES is read from it. * marks the point of attachment. Cbz = O=C(OCc1ccccc1)*; CH2F = FC*

Assays:
[1] = test system: NIH-3T3 cells stably expressing RIPK3-1xFv; test: AP1-induced RIPK3 dimerization cell death, IncuCyte imaging; assay type: cell-based, murine; conditions: for effect on AP1 (RIPK3 dimerization)-induced cell death: 30 nM AP1, zVAD 50 μM, Nec1 30 μM, TNFR-Fc 200 ng/ml, siRNA 72 h before
Source text: Fv domains rapidly dimerize in response to AP1 treatment that facilitated an investigation of the protein-protein interactions involved in RIPK3 activation and necroptosis (27a). For example, an Fv domain was appended to a C-terminus of RIPK3, that is adjacent to the RHIM domain, in an effort to mimic in situ RHIM-dependent interactions that define RIPK3 activation. RIPK3-1xFv was expressed in NIH-3T3 cells, a cell line that lacks endogenous RIPK3 expression and is therefore unresponsive to TNF-induced necroptosis. See, FIGS. 13A and 13B. Cell death responses of NIH-3T3 cells were quantified by construct expression over time using the IncuCyte imaging system, which allows precise quantification of cell death with high temporal resolution. For example, representative images were acquired from an IncuCyte Imager (data not shown). These images were NIH-3T3 cells stably expressing RIPK3-1xFV, treated with 10 nM AP1 (see FIG. 1B for a quantified graphical representation of this cell death). One set of images show a field of these cells undergoing RIPK3-dependent cell death; the media contains the cell impermeable DNA binding dye Sytox Green, which marks cells that have lost membrane integrity in green. Another set of images depicts the same image set, following analysis by the IncuCyte software package. This software counts each green (dead) cell in each image; counted cells are surrounded by purple halos. Each trace shown in this manuscript depicts data averaged from at least 3 independently treated wells of cells, each of which is imaged in at least 4 separate fields. Each experiment shown is representative of at least 3 separate replicates. All experiments on stably transduced cells is representative of at least three separate replicates performed on each of at least two distinct, independently-derived stable lines.
In the examples below, the following compounds were used: Recombinant murine TNF (Peprotech 315-01A) was used at 1 ng/ml unless otherwise specified; AP1 (Now commercialized by Clontech as “B/B Homodimerizer,” catalog #635059) was dissolved in ethanol to a concentration of 100 μM, then diluted in culture media to a final concentration of 30 nM unless otherwise indicated. zVAD (SM 13 Biochemicals SMFMK001) was dissolved in DMSO to a concentration of 50 mM, then diluted to 50 μM in culture media; Necrostatin-1(Sigma N9037-10MG) was dissolved in DMSO to a concentration of 30 mM, then diluted to 30 μM in culture media; TNFR-Fc (Fisher 430-RI-050) was used at a final concentration of 200 ng/ml; Shield drug was a kind gift of Dr. Tom Wandless and was used at a final concentration of 1 μM. SiGenome SMARTpool siRNAs were purchased from Dharmacon/Fisher. Pools targeting murine MLKL(M-061420-01), murine RIPK1 (M-040150-01), and murine caspase-8 (M-043044-01), as well as a non-targeting “scramble” pool(D-001206-14), were used. Two microliters of a 50 μM stock of these siRNAs were delivered to cells in 6-well format using Lipofectamine siRNA-Max reagent (Life Technologies 13778150) according to the manufacturer's instructions. Forty-eight hours later, these cells were re-plated into 24-well format for cell death assays, or harvested for western blot analysis of knockdowns.
These constructs were transduced into NIH-3T3 cells using standard protocols for helper-dependent retroviral transduction. Transduced cells were selected for 5 days in 1 μg/ml puromycin, then grown to confluence and sorted twice for homogenous GFP expression. […]

RIPK3 complexes = test: DSS crosslinking of necrosome complexes resolved by western blotting; assay type: cell-based, murine; conditions: 30 nM AP1; zVAD 50 μM, Nec1 30 μM
Procedure: A confluent monolayer of the indicated cells was incubated with the appropriate treatment for 30 minutes at 37 degrees. Cells were lysed in a modified, Tris-free NP40 buffer (30 mM HEPES pH 7.4, 150 mM NaCl, and 1% NP40) without protease inhibitors. Protein lysate was quantified according to standard BCA assay (Pierce) and fifty micrograms of each sample was treated with 0.1 mM DSS crosslinking agent (Thermo Scientific, #21658) for 30 minutes at room temperature; the reaction was quenched by the addition of Tris-HCl pH 7.2 to a final concentration of 50 mM for 15 minutes. Crosslinked samples were analyzed by Western blot as described above, using the anti-2A primary antibody for detection.

[2] = test system: Cells expressing RIPK3ΔC-FKBPx2; test: Homodimerizer-induced truncated RIPK3 necrosis, PI uptake; assay type: cell-based; conditions: homodimerizer 1-100 nM, PI uptake at 3 hrs
Procedure: FIG. 6 provides a schematic for inducible RIPK-necrosis. Two systems for inducible RIPK-necrosis. […] Cell death in cells expressing RIPK1-FRB/RIPK3-FKBP and treated with heterodimerizer, and death was detected with annexin V-FITC. Death was inhibited by necrostatin-1 (not shown) (FIG. 6B). Cells expressing RIPK3ΔC-FKBPx2, treated with homodimerizer (1-100 nM); death was detected at 3 hrs by PI uptake. No effect of zVAD-fmk or necrostatin was observed (FIG. 6B).
An inducible dimer system has been employed to trigger homodimerization of caspase-8 in cells (27). The data provided herein support methods to induce RIPK-dependent necrosis by related approaches (FIG. 6A). Heterodimerization of RIPK1 and RIPK3 results in necrosis (see FIG. 6B) which is enhanced by inhibition of caspases and blocked by inhibition of RIPK1 (with nec1, data not shown). In contrast, truncated RIPK3 (lacking the RHIM domain for interaction with RIPK1) can only be oligomerized when FKBP domains (e.g., for example, two domains) that allow multiple monomers to be brought together by the dimerizing agent. Addition of the homodimerization agent to cells expressing this construct induces extremely rapid necrosis that that depends on the kinase activity of RIPK3, but is not affected by inhibition of caspases or nec1 treatment (FIG. 6C).

Row | SMILES | effect on AP1 (RIPK3 dimerization)-induced cell death [1] | effect on AP1 (RIPK3 dimerization)-induced cell death ([1]; listed as Nec1) | inhibitory effects of Nec1 on RIPK3 oligomerization upon knockdown of RIPK1 ([1]; RIPK1 siRNA, 30 nM AP1, 30 μM Nec1) | effect of inhibitor on RIPK3 complexes following RIPK3-1xFv dimerization (RIPK3 complexes) | effect on homodimerizer-induced death [2] | effect on homodimerizer-induced death ([2]; listed as nec1)
1 | CN1C(=O)C(Cc2c[nH]c3ccccc23)NC1=S (stereo not drawn) [necrostatin-1, Necrostatin-1] | suppressed | blocked | abrogated | diminished the appearance of these complexes | No effect | not affected
2 | COC(=O)C[C@H](NC(=O)[C@H](C)NC(=O)[C@@H](NC(=O)OCc1ccccc1)C(C)C)C(=O)CF [zVAD] (Cbz-Val-Ala-Asp(OMe)-CH2F) | notably increased the rate and magnitude of necroptosis |  |  | increased shift of RIPK3 into higher molecular weight complexes | No effect | 
